Measurements from patent US6784137B2, “6-aryl-4-aminopicolinates and their use as herbicides” (Dow AgroSciences LLC, priority 2001, dated 2004).
Read-outs that look alike come from different tables or passages of the source.

Experiments:
[1] = system: Lambsquarter (Chenopodium album); experiment: Preemergence herbicidal activity, soil spray; type: in vivo; conditions: Chenopodium album, pre-emergence, 504 h; Table 5; rate 560 ppm; visual score after 3 weeks, 100 complete kill or no germination; read-out: Pre-emergent % control CHEAL
From the text: (§1) Seeds of the desired test plant species were planted in a soil matrix prepared by mixing a loam soil (43 percent silt, 19 percent clay, and 38 percent sand, with a pH of about 8.1 and an organic matter content of about 1.5 percent) and sand in a 70 to 30 ratio. The soil matrix was contained in plastic pots with a surface area of 113 square centimeters. When required to ensure good germination and healthy plants, a fungicide treatment and/or other chemical or physical treatment was applied. A weighed amount, determined by the highest rate to be tested, of each test compound was placed in a 20 mL glass vial and was dissolved in 4 mL of a 97:3 v/v (volume/volume) mixture of acetone and dimethyl sulfoxide to obtain concentrated stock solutions. […] The stock solutions obtained were diluted with a 99.9:0.1 mixture of water and Tween® 155 surfactant to obtain application solutions of known concentration. The solutions containing the highest concentration to be tested were prepared by diluting 2 mL aliquots of the stock solution with 15 mL of the mixture and lower concentrations were prepared by serial dilution of the stock solution. A 2.5 mL aliquot of each solution of known concentration was sprayed evenly onto the soil surface (113 sq. cm) of each seeded pot using a Cornwall 5.0 mL glass syringe fitted with a TeeJet TN-3 hollow cone nozzle to obtain thorough coverage of the soil in each pot. Control pots were sprayed in the same manner with the aqueous mixture. The treated pots and control pots were placed in a greenhouse maintained with an approximate 15 hr photoperiod and temperatures of about 23-29° C. during the day and 22-28° C. during the night. Nutrients and water were added on a regular basis and supplemental lighting was provided with overhead metal halide 1000-Watt lamps as necessary. The water was added by top-irrigation.

[2] = system: Pigweed (redroot) (Amaranthus retroflexus); experiment: Preemergence herbicidal activity, soil spray; type: in vivo; conditions: Amaranthus retroflexus, pre-emergence, 504 h, Table 5, visual score after 3 weeks, read-out: Pre-emergent % control AMARE; for pest or weed control at 560 ppm: rate 560 ppm
From the text: as §1

[3] = system: Crabgrass(large) (Digitaria sanguinalis); experiment: Preemergence herbicidal activity, soil spray; type: in vivo; conditions: Digitaria sanguinalis, pre-emergence, 504 h, Table 5, visual score after 3 weeks, read-out: Pre-emergent % control DIGSA; for pest or weed control at 560 ppm: rate 560 ppm
From the text: as §1

[4] = system: Giant Foxtail (Setaria faberi); experiment: Preemergence herbicidal activity, soil spray; type: in vivo; conditions: Setaria faberi, pre-emergence, 504 h, Table 5, visual score after 3 weeks, read-out: Pre-emergent % control SETFA; for pest or weed control at 560 ppm: rate 560 ppm
From the text: as §1

[5] = system: Lambsquarter (Chenopodium album); experiment: Postemergence herbicidal activity, greenhouse spray; type: in vivo; conditions: Chenopodium album, post-emergence, 336 h, visual score after 2 weeks, read-out: Post-emergent % control CHEAL; for pest or weed control at 250 ppm: rate 250 ppm; for pest or weed control at 125 ppm: rate 125 ppm; for pest or weed control at 500 ppm: rate 500 ppm
Description: (§2) When required to ensure good germination and healthy plants, a fungicide treatment and/or other chemical or physical treatment was applied. The plants were grown for 7-21 days in a greenhouse with an approximate 15 hr photoperiod which was maintained at about 23-29° C. during the day and 22-28° C. during the night. Nutrients and water were added on a regular basis and supplemental lighting was provided with overhead metal halide 1000-Watt lamps as necessary. The plants were employed for testing when they reached the first or second true leaf stage. A weighed amount, determined by the highest rate to be tested, of each test compound was placed in a 20 mL glass vial and was dissolved in 4 mL of a 97:3 v/v (volume/volume) mixture of acetone and dimethyl sulfoxide (DMSO) to obtain concentrated stock solutions. […] The concentrated stock solutions obtained were diluted with an aqueous mixture containing acetone, water, isopropyl alcohol, DMSO, At plus 411 F crop oil concentrate, and Triton X-155 surfactant in a 48.5:39:10:1.5:1.0:0.02 v/v ratio to obtain spray solutions of known concentration. The solutions containing the highest concentration to be tested were prepared by diluting 2 mL aliquots of the stock solution with 13 mL of the mixture and lower concentrations were prepared by serial dilution of the stock solution. Approximately 1.5 mL aliquots of each solution of known concentration were sprayed evenly onto each of the test plant pots using a DeVilbiss atomizer driven by compressed air pressure of 2 to 4 psi (140 to 280 kiloPascals) to obtain thorough coverage of each plant. Control plants were sprayed in the same manner with the aqueous mixture. […] The treated plants and control plants were placed in a greenhouse as described above and watered by sub-irrigation to prevent wash-off of the test compounds.

[6] = system: Barnyardgrass (Echinochloa crus-galli); experiment: as above; type: in vivo; conditions: Echinochloa crus-galli, post-emergence, 336 h, visual score after 2 weeks, read-out: Post-emergent % control ECHCG; for pest or weed control at 250 ppm: rate 250 ppm; for pest or weed control at 125 ppm: rate 125 ppm; for pest or weed control at 500 ppm: rate 500 ppm
Description: as §2

[7] = system: Cocklebur (Xanthium strumarium); experiment: as above; type: in vivo; conditions: Xanthium strumarium, post-emergence, 336 h, visual score after 2 weeks, read-out: Post-emergent % control XANST; for pest or weed control at 250 ppm: rate 250 ppm; for pest or weed control at 125 ppm: rate 125 ppm; for pest or weed control at 500 ppm: rate 500 ppm, 0 no injury, 100 complete kill
Description: as §2

[8] = system: Yellow nutsedge (Cyperus esculentus); experiment: as above; type: in vivo; conditions: Cyperus, post-emergence, 336 h, visual score after 2 weeks, read-out: Post-emergent % control CYPES; for pest or weed control at 250 ppm: rate 250 ppm; for pest or weed control at 125 ppm: rate 125 ppm; for pest or weed control at 500 ppm: rate 500 ppm
Description: as §2

Compound: CCc1ccc(-c2cc(N)c(Cl)c(C(=O)OC)n2)cc1 [Compound 30, Methyl 4-amino-3-chloro-6-(4-ethylphenyl)pyridine-2-carboxylate]
- pest or weed control at 560 ppm [1]: 90%
- pest or weed control at 560 ppm [2]: 100%
- pest or weed control at 560 ppm [3]: 100%
- pest or weed control at 560 ppm [4]: 70%
- melting point: 119 °C

Compound: COC(=O)c1nc(-c2ccc3c(c2)CCO3)c(F)c(N)c1Cl [Compound 85, Methyl 4-amino-3-chloro-5-fluoro-6-(2,3-dihydro-5-benzofuranyl)pyridine-2-carboxylate]
- pest or weed control at 250 ppm ([5]; Table 1): 100%
- pest or weed control at 250 ppm ([6]; Table 1): 99%
- pest or weed control at 250 ppm ([7]; Table 1): 100%
- pest or weed control at 250 ppm ([8]; Table 1): 70%
- melting point: 120 °C

Compound: Nc1cc(-c2cc3ccccc3o2)nc(C(=O)O)c1Cl [Compound 219, 4-Amino-6-(2-benzofuranyl)-3-chloropyridine-2-carboxylic acid]
- pest or weed control at 250 ppm ([5]; Table 1): 100%
- pest or weed control at 250 ppm ([6]; Table 1): 80%
- pest or weed control at 250 ppm ([7]; Table 1): 100%
- pest or weed control at 250 ppm ([8]; Table 1): 0%
- melting point: 151 °C

Compound: Nc1c(F)c(C(=O)O)nc(-c2ccc3c(c2)OCO3)c1F [Compound 207, 4-Amino-3,5-difluoro-6-(3,4-methylenedioxyphenyl)pyridine-2-carboxylic acid]
- pest or weed control at 125 ppm ([5]; Table 1): 70%
- pest or weed control at 125 ppm ([6]; Table 1): 70%
- pest or weed control at 125 ppm ([7]; Table 1): 90%
- pest or weed control at 125 ppm ([8]; Table 1): 40%
- pest or weed control at 140 ppm ([2]; rate 140 ppm): 100%
- pest or weed control at 140 ppm ([3]; rate 140 ppm): 95%
- pest or weed control at 140 ppm ([4]; rate 140 ppm): 50%
- melting point: 174 to 175 °C

Compound: COC(=O)c1nc(-c2ccc(C(F)(F)F)cc2)c(Cl)c(N)c1Cl [Compound 44, Methyl 4-amino-3,5-dichloro-6-[4-(trifluoromethyl)phenyl]pyridine-2-carboxylate]
- pest or weed control at 250 ppm ([5]; Table 1): 80%
- pest or weed control at 250 ppm ([6]; Table 1): 30%
- pest or weed control at 250 ppm ([7]; Table 1): 100%
- pest or weed control at 250 ppm ([8]; Table 1): 70%
- melting point: 110 to 111 °C

Compound: Nc1c(F)c(-c2ccc(Cl)cc2Cl)nc(C(=O)O)c1Cl [Compound 199, 4-Amino-3-chloro-5-fluoro-6-(2,4-dichlorophenyl)pyridine-2-carboxylic acid]
- pest or weed control at 250 ppm ([5]; Table 1): 100%
- pest or weed control at 125 ppm ([5]; Table 2): 100%
- pest or weed control at 250 ppm ([6]; Table 1): 85%
- pest or weed control at 125 ppm ([6]; Table 2): 80%
- pest or weed control at 250 ppm ([7]; Table 1): 100%
- pest or weed control at 125 ppm ([7]; Table 2): 100%
- pest or weed control at 250 ppm ([8]; Table 1): 95%
- pest or weed control at 125 ppm ([8]; Table 2): 90%
- melting point: 152 °C

Compound: COC(=O)c1nc(-c2ccc3ccccc3c2)cc(N)c1Cl [Compound 47, Methyl 4-amino-3-chloro-6-(2-naphthyl)pyridine-2-carboxylate]
- pest or weed control at 500 ppm ([5]; Table 1): 90%
- pest or weed control at 500 ppm ([6]; Table 1): 80%
- pest or weed control at 500 ppm ([7]; Table 1): 90%
- pest or weed control at 500 ppm ([8]; Table 1): 0%
- melting point: 108 to 109 °C

Compound: Nc1cc(-c2ccc(Cl)c(C(F)(F)F)c2)nc(C(=O)O)c1Cl [Compound 179, 4-Amino-3-chloro-6-(4-chloro-3-(trifluoromethyl)phenyl)pyridine-2-carboxylic acid]
- pest or weed control at 560 ppm [1]: 100%
- pest or weed control at 560 ppm [2]: 100%
- pest or weed control at 560 ppm [3]: 98%
- pest or weed control at 560 ppm [4]: 98%
- melting point: 176 °C

Compound: COC(=O)c1nc(-c2ccc3c(c2)OCO3)c(F)c(N)c1F [Compound 95, Methyl 4-amino-3,5-difluoro-6-(3,4-methylenedioxyphenyl)pyridine-2-carboxylate]
- pest or weed control at 125 ppm ([5]; Table 1): 90%
- pest or weed control at 125 ppm ([6]; Table 1): 70%
- pest or weed control at 125 ppm ([7]; Table 1): 80%
- pest or weed control at 125 ppm ([8]; Table 1): 60%
- melting point: 189 to 190 °C

Compound: COC(=O)c1nc(-c2ccc(Cl)cc2Cl)c(F)c(NC(C)=O)c1Cl [Compound 49, Methyl 4-acetamido-3-chloro-5-fluoro-6-(2,4-dichlorophenyl)pyridine-2-carboxylate]
- pest or weed control at 125 ppm ([5]; Table 1): 80%
- pest or weed control at 125 ppm ([6]; Table 1): 10%
- pest or weed control at 125 ppm ([7]; Table 1): 100%
- pest or weed control at 125 ppm ([8]; Table 1): 30%
- melting point: 178 to 179 °C

Compound: COC(=O)c1nc(-c2ccc(C(F)(F)F)cc2)c(F)c(N)c1F [Compound 94, Methyl 4-amino-3,5-difluoro-6-[4-(trifluoromethyl)phenyl]pyridine-2-carboxylate]
- pest or weed control at 500 ppm ([5]; Table 1): 100%
- pest or weed control at 500 ppm ([6]; Table 1): 90%
- pest or weed control at 500 ppm ([7]; Table 1): 100%
- pest or weed control at 500 ppm ([8]; Table 1): 90%
- melting point: 177 to 178 °C

Compound: COC(=O)c1nc(-c2ccc(Cl)cn2)cc(N)c1Cl [Compound 111, Methyl 4-amino-3-chloro-6-(5-chloro-2-pyridyl)pyridine-2-carboxylate]
- pest or weed control at 250 ppm ([5]; Table 1): 100%
- pest or weed control at 250 ppm ([6]; Table 1): 70%
- pest or weed control at 250 ppm ([7]; Table 1): 100%
- pest or weed control at 250 ppm ([8]; Table 1): 80%
- melting point: 145 to 150 °C

Compound: Nc1cc(-c2ccc(F)cc2Cl)nc(C(=O)O)c1Cl [Compound 170, 4-Amino-3-chloro-6-(2-chloro-4-fluorophenyl)pyridine-2-carboxylic acid]
- pest or weed control at 500 ppm ([5]; Table 1): 100%
- pest or weed control at 500 ppm ([6]; Table 1): 80%
- pest or weed control at 500 ppm ([7]; Table 1): 100%
- pest or weed control at 500 ppm ([8]; Table 1): 70%
- melting point: 156 to 157 °C
